Article PMC7699256, “In Silico Analysis and In Vitro Characterization of the Bioactive Profile of Three Novel Peptides Identified from 19 kDa α-Zein Sequences of Maize” (Molecules, 2020)
Where two headings read alike, the source gives them in different places. No end group written: not given here.

Target: T1, angiotensin-converting enzyme (ACE) (Homo sapiens, UniProt P12821)
T1 construct: purchased Sigma-Aldrich CS0002
Experiment: ACE inhibition assay (ACE Activity Assay kit, fluorogenic substrate)
Type: biochemical
Protocol: ACE inhibitory activity was evaluated using the ACE Activity Assay test (Sigma-Aldrich CS0002, Saint Louis, MI, USA). This assay is based on the hydrolysis of angiotensin I by ACE to yield active angiotensin II. This test uses a synthetic fluorogenic peptide as the substrate, and the resulting fluorescence is proportional to ACE activity. Briefly, all reagents were diluted in the assay buffer, according to the manufacturer’s instructions. A total of 10 µL of peptide sample and positive control (captopril PHR1307, Sigma-Aldrich, Saint Louis, MI, USA), diluted in assay buffer at five different concentrations, and negative control (assay buffer) were pipetted into the wells of a 96-well black opaque plate. Then, 40 µL of ACE, provided in the kit, was added to sample and control wells. Sample blanks consisted of 50 µL of assay buffer. A standard curve was prepared in 100 µL assay buffer per well ranging from 0 to 8 nmol for calculating enzymatic activity. Subsequently, 50 µL of fluorogenic substrate warmed to 37 °C was added to experimental, control and blank sample wells. The reaction was carried out at 37 °C and fluorescence was read every minute for 5 min in a microplate reader (Biotek Synergy HTX, Winooski, VT, USA). The absorbance of excitation and emission were set at 320 nm and 405 nm, respectively. All determinations were done in duplicate. Linear regressions were determined to calculate the enzymatic activity for each sample dose.
One unit is defined as the amount of enzyme that releases one nmol of fluorescent substrate in 1 min at 37 °C. The results were expressed as milliunits of enzyme (mU). Finally, the IC50 of each peptide sample and captopril was determined using regression analysis of the corresponding dose–response curves. […] This value was expressed as µM.

[1] = fluorogenic substrate, 37 °C, fluorescence (ex 320/em 405 nm) every minute for 5 min, five concentrations, value ± SD, n = 2, read-out: IC50 for ACE inhibition
[2] = own IC50 values converted to mg/mL for comparison with the literature, read-out: IC50 for ACE inhibition expressed in mg/mL (converted)

T1 sequence (P12821 30-1306, species assumed): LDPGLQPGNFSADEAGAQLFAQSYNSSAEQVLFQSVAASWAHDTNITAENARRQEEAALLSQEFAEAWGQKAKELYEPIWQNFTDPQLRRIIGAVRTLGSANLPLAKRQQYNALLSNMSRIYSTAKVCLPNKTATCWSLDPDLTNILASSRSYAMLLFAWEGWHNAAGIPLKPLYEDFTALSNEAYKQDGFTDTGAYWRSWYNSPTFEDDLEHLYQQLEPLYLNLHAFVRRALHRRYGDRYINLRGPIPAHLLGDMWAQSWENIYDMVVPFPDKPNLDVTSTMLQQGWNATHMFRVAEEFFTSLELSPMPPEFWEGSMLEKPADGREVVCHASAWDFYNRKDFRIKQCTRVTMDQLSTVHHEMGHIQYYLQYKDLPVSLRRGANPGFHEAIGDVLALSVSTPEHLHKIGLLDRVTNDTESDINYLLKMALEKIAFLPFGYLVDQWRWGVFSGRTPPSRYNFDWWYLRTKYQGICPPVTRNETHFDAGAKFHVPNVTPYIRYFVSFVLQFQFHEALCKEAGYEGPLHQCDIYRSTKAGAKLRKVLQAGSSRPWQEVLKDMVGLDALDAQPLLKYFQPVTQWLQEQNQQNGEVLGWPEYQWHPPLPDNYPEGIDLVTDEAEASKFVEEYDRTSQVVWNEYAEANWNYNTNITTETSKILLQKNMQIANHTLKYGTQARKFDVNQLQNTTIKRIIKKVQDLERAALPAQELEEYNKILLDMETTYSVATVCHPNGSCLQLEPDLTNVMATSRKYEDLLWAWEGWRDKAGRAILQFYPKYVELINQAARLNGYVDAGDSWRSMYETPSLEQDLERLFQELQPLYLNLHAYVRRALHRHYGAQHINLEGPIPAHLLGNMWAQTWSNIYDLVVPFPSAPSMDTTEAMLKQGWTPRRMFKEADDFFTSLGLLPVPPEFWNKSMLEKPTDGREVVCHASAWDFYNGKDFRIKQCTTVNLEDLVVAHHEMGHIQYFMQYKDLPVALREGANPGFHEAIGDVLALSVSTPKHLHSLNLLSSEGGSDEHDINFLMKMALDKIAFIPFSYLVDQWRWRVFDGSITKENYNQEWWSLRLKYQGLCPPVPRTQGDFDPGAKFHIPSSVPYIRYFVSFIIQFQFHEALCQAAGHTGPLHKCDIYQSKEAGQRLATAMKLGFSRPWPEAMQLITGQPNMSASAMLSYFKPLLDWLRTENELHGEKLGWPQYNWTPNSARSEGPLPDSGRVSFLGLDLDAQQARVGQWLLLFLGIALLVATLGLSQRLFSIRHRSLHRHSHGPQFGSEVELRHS

IC50 [1] | IC50 [2] | Substance
14.19 ± 0.12 µM | 14.4 µM | FNQLAALNSAAYLQQQQLLPFSQLA-NH2 [19ZP1]
174 ± 49.6 µM | 174 µM | QLADVSPAAFLTQQQLLPFYLHAM-NH2 [19ZP2]
202 ± 0.63 µM | 202 µM | AYLQAQQLLPFNQLVRSPAA-NH2 [19ZP3]
